Measurements from ChEMBL document CHEMBL6121004, “Design, synthesis, and biological evaluation of Ponatinib-based N-Phenylpyrimidine-2-amine derivatives as novel fibroblast growth factor receptor 4 (FGFR4) selective inhibitors” (Eur J Med Chem, 2025).
Active and inactive are the calls of the source. The rule behind the calls is not given here.

Experiments:
[1] = molecular target: Platelet-derived growth factor receptor alpha (Homo sapiens) (UniProt P16234); assay: Inhibition of PDGFRalpha (unknown origin) at 1 uM relative to control
[2] = Oral bioavailability in BALB/c male mouse at 10 mg/kg measured upto 24 hrs by LC-MS/MS analysis; type: ADME, organism-based; settings: in vivo
[3] = tested on: Huh-7; assay: Induction of apoptosis in human Huh-7 cells assessed as necrotic cells at 0.1 uM incubated for 48 hrs by annexin V-FITC/propidium iodide staining based flow cytometry analysis (reference value: 5.20%); type: functional
[4] = tested on: Hep 3B2; assay: Induction of apoptosis in human Hep3B cells assessed as early apoptotic cells at 0.25 uM incubated for 48 hrs by annexin V-FITC/propidium iodide staining based flow cytometry analysis (reference value: 4.69%); type: functional
[5] = tested on: Huh-7; assay: Induction of apoptosis in human Huh-7 cells assessed as necrotic cells at 1 uM incubated for 48 hrs by annexin V-FITC/propidium iodide staining based flow cytometry analysis (reference value: 5.20%); type: functional
[6] = molecular target: Tyrosine-protein kinase ABL2 (Homo sapiens) (UniProt P42684); assay: Inhibition of ABL2 (unknown origin) at 1 uM relative to control
[7] = tested on: Hep 3B2; assay: Induction of apoptosis in human Hep3B cells assessed as late apoptotic cells at 0.5 uM incubated for 48 hrs by annexin V-FITC/propidium iodide staining based flow cytometry analysis (reference value: 5.20%); type: functional
[8] = Volume of distribution at steady state in BALB/c male mouse at 1 mg/kg, iv measured upto 24 hrs by LC-MS/MS analysis; type: ADME, organism-based; settings: in vivo, read-out: Vdss
[9] = tested on: Huh-7; assay: Antitumor activity against human Huh-7 cells xenografted in nude mouse assessed as tumor growth inhibition at 12.5 mg/kg, ip administered for 15 days; type: functional; settings: Huh-7, 360 h, time 15 day, read-out: TGI
[10] = Toxicity in male nude mouse implanted with human Huh-7 cells assessed as kidney damage at 12.5 to 50 mg/kg, ip administered for 15 days; type: organism-based; settings: in vivo, 360 h, dose 12.5-50 mg/kg, time 15 day
[11] = Clearance in BALB/c male mouse at 1 mg/kg, iv measured upto 24 hrs by LC-MS/MS analysis; type: ADME, organism-based; settings: in vivo
[12] = tested on: Huh-7; assay: Antitumor activity against human Huh-7 cells xenografted in nude mouse assessed as tumor growth inhibition at 50 mg/kg, ip administered for 15 days; type: functional; settings: Huh-7, 360 h, time 15 day, read-out: TGI
[13] = Toxicity in male nude mouse implanted with human Huh-7 cells assessed as liver damage at 12.5 to 50 mg/kg, ip administered for 15 days; type: organism-based; settings: in vivo, 360 h, dose 12.5-50 mg/kg, time 15 day
[14] = tested on: MDA-MB-231; assay: cells; settings: Homo sapiens, MDA-MB-231, 72 h
Description: Antiproliferative activity against human MDA-MB-231 cells assessed as inhibition of cell proliferation incubated for 72 hrs by MTT assay

[15] = tested on: Huh-7; assay: Induction of apoptosis in human Huh-7 cells assessed as early apoptotic cells at 1 uM incubated for 48 hrs by annexin V-FITC/propidium iodide staining based flow cytometry analysis (reference value: 4.59%); type: functional
[16] = tested on: Huh-7; assay: Induction of apoptosis in human Huh-7 cells assessed as viable cells at 0.1 uM incubated for 48 hrs by annexin V-FITC/propidium iodide staining based flow cytometry analysis (reference value: 84.91%); type: functional; settings: read-out: Activity
[17] = tested on: Hep 3B2; assay: Induction of apoptosis in human Hep3B cells assessed as early apoptotic cells at 1 uM incubated for 48 hrs by annexin V-FITC/propidium iodide staining based flow cytometry analysis (reference value: 4.69%); type: functional
[18] = tested on: Hep 3B2; assay: Induction of apoptosis in human Hep3B cells assessed as necrotic cells at 0.25 uM incubated for 48 hrs by annexin V-FITC/propidium iodide staining based flow cytometry analysis (reference value: 5.20%); type: functional
[19] = tested on: Hep 3B2; assay: Induction of apoptosis in human Hep3B cells assessed as viable cells at 0.25 uM incubated for 48 hrs by annexin V-FITC/propidium iodide staining based flow cytometry analysis (reference value: 84.91%); type: functional; settings: read-out: Activity
[20] = Half life in BALB/c male mouse at 10 mg/kg, po measured upto 24 hrs by LC-MS/MS analysis; type: ADME, organism-based; settings: in vivo
[21] = Toxicity in male nude mouse implanted with human Huh-7 cells assessed as lung damage at 12.5 to 50 mg/kg, ip administered for 15 days; type: organism-based; settings: in vivo, 360 h, dose 12.5-50 mg/kg, time 15 day
[22] = MRT (0 to t) in BALB/c male mouse at 10 mg/kg, po measured upto 24 hrs by LC-MS/MS analysis; type: ADME, organism-based; settings: in vivo
[23] = tested on: Hep3B; assay: Inhibition of MAPK phosphorylation in human Hep3B cells at 0.4 uM incubated for 48 hrs by Western blot analysis; type: cell-based
[24] = tested on: Hep 3B2; assay: cells; settings: Homo sapiens, Hep3B, 72 h
Description: Antiproliferative activity against human Hep3B cells assessed as inhibition of cell proliferation incubated for 72 hrs by MTT assay

[25] = tested on: Hep 3B2; assay: Induction of apoptosis in human Hep3B cells assessed as early apoptotic cells at 0.5 uM incubated for 48 hrs by annexin V-FITC/propidium iodide staining based flow cytometry analysis (reference value: 4.69%); type: functional
[26] = Antiproliferative activity against human L02 cells assessed as inhibition of cell proliferation incubated for 72 hrs by MTT assay; type: toxicity, cell-based
[27] = tested on: Huh-7; assay: Induction of apoptosis in human Huh-7 cells assessed as late apoptotic cells at 0.1 uM incubated for 48 hrs by annexin V-FITC/propidium iodide staining based flow cytometry analysis (reference value: 5.20%); type: functional
[28] = tested on: Huh-7; assay: Induction of apoptosis in human Huh-7 cells assessed as necrotic cells at 0.5 uM incubated for 48 hrs by annexin V-FITC/propidium iodide staining based flow cytometry analysis (reference value: 5.20%); type: functional
[29] = Toxicity in male nude mouse implanted with human Huh-7 cells assessed as body weight loss at 12.5 to 50 mg/kg, ip administered for 15 days; type: organism-based; settings: in vivo, 360 h, dose 12.5-50 mg/kg, time 15 day
[30] = tested on: Hep 3B2; assay: Induction of apoptosis in human Hep3B cells assessed as viable cells at 1 uM incubated for 48 hrs by annexin V-FITC/propidium iodide staining based flow cytometry analysis (reference value: 84.91%); type: functional; settings: read-out: Activity
[31] = tested on: Huh-7; assay: Induction of apoptosis in human Huh-7 cells assessed as late apoptotic cells at 0.5 uM incubated for 48 hrs by annexin V-FITC/propidium iodide staining based flow cytometry analysis (reference value: 5.20%); type: functional
[32] = tested on: Huh-7; assay: Downregulation of FAK level in human Huh-7 cells at 0.25 to 1 uM incubated for 48 hrs by Western blot analysis; type: functional, cell-based; settings: dose 0.25-1 µM
[33] = AUC (0 to t) in BALB/c male mouse at 10 mg/kg, po measured upto 24 hrs by LC-MS/MS analysis; type: ADME, organism-based; settings: in vivo
[34] = tested on: Hep3B; assay: Inhibition of MAPK phosphorylation in human Hep3B cells incubated for 48 hrs by Western blot analysis; type: cell-based; settings: dose 0.25-1 µM
[35] = tested on: Hep 3B2; assay: Induction of apoptosis in human Hep3B cells assessed as necrotic cells at 1 uM incubated for 48 hrs by annexin V-FITC/propidium iodide staining based flow cytometry analysis (reference value: 5.20%); type: functional
[36] = tested on: Hep 3B2; assay: Effect on FGFR4 level in human Hep3B cells at 0.25 to 1 uM incubated for 48 hrs by Western blot analysis; type: functional, cell-based; settings: dose 0.25-1 µM
[37] = tested on: Huh-7; assay: Antiproliferative activity against human Huh-7 cells assessed as cell viability at […] pre-incubated with compound for 12 hrs followed by compound washout and measured after 4 days; type: functional, cell-based; settings: dose 1.6 µM
[38] = species on record: Homo sapiens; assay: Inhibition of SRC (unknown origin) at 1 uM relative to control

Chain of Tyrosine-protein kinase ABL2 (Homo sapiens) (P42684 whole entry): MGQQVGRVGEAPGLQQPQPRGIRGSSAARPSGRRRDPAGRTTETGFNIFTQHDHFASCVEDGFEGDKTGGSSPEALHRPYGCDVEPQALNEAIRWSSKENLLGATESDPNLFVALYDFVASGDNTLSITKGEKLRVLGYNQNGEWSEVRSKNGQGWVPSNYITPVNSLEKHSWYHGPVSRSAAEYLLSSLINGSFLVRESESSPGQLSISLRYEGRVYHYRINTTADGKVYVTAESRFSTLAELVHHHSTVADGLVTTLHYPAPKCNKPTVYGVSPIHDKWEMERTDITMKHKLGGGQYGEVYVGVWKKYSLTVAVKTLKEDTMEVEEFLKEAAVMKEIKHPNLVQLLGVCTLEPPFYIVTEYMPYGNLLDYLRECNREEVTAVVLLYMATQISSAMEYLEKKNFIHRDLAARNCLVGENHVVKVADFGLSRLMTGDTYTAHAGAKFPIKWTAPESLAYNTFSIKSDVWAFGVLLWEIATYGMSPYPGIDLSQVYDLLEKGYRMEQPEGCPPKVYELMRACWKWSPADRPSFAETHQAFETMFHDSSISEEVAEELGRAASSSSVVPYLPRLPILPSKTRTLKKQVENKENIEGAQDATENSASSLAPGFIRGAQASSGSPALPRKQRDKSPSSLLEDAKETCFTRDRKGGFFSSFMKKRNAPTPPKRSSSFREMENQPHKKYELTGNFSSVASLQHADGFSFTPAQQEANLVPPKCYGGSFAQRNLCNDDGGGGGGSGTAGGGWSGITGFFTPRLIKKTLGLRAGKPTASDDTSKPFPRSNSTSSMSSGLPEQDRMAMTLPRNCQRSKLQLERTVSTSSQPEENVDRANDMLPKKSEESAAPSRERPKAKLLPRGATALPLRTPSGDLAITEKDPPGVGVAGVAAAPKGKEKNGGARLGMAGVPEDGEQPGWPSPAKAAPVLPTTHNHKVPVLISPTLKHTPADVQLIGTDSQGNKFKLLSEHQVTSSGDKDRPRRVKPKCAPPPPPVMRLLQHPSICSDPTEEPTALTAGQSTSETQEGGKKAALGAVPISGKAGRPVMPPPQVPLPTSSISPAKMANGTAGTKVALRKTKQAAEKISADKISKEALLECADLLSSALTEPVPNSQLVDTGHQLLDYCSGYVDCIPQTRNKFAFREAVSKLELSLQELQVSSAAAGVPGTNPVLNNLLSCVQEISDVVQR
Chain of Platelet-derived growth factor receptor alpha (Homo sapiens) (P16234 whole entry): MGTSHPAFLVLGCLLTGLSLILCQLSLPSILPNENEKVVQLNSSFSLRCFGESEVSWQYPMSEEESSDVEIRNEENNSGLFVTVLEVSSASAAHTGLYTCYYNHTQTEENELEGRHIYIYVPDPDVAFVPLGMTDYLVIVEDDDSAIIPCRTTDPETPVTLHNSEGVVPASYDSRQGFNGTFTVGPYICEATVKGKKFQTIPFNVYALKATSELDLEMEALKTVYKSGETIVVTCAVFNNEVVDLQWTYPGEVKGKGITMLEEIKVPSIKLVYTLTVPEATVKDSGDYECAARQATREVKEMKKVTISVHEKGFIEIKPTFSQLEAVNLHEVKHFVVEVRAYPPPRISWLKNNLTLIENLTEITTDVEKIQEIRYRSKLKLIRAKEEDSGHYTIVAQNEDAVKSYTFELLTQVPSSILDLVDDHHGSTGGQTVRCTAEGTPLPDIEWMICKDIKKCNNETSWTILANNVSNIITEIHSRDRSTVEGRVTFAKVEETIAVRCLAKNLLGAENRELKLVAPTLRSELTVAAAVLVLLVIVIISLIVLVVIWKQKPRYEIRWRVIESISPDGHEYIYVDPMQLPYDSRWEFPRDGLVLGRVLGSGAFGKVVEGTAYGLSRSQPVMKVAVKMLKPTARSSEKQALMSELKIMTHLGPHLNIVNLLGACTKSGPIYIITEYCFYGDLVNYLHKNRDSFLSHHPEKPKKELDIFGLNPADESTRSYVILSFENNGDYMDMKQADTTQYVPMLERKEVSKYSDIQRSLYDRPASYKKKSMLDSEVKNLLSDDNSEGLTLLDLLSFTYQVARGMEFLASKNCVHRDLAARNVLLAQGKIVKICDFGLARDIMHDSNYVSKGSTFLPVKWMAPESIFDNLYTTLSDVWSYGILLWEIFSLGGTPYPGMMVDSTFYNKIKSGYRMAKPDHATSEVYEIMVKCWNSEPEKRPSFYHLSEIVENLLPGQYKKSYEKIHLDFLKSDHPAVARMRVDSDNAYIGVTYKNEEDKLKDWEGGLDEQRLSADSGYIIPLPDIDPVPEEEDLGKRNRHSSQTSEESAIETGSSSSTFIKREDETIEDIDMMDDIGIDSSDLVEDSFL

SMILES: C=CC(=O)Nc1cccc(C)c1Nc1ncc(C#Cc2cccc(C(=O)Nc3ccc(CN4CCN(C)CC4)c(C(F)(F)F)c3)c2)cn1
- inhibition [1]: < 70%
- bioavailability [2]: 17.8%
- Activity [3]: 2.37%
- Activity [4]: 4.38%
- Activity [5]: 9.67%
- inhibition [6]: < 70%
- Activity [7]: 18.41%
- Vd [8]: 3.52 L/kg
- inhibition in vivo at 12.5 mg/kg [9]: 34.9%
- Activity [10]: Non-toxic
- clearance [11]: 67.9 mL/min/kg
- inhibition in vivo at 50 mg/kg [12]: 69.8%
- Activity [13]: Non-toxic
- IC50 [14]: 5.6 µM
- Activity [15]: 2.12%
- viability at 0.1 µM [16]: 88.8%
- Activity [17]: 9.61%
- Activity [18]: 5.62%
- viability at 0.25 µM [19]: 80.8%
- half-life [20]: 1.4 h
- Activity [21]: Non-toxic
- MRT last at 24 h [22]: 2.65 h
- inhibition [23]: Active
- IC50 [24]: 0.07 µM
- Activity [25]: 5.73%
- IC50 at 72 h [26]: > 10 µM
- Activity [27]: 5.12%
- Activity [28]: 8.41%
- Activity [29]: Non-toxic
- viability at 1 µM [30]: 63.2%
- Activity [31]: 11.2%
- Activity [32]: Active
- AUC(0-t) at 24 h [33]: 318 ng·h/mL
- inhibition [34]: Dose-dependent-effect
- Activity [35]: 5.13%
- Activity [36]: Active
- Activity [37]: Active
- inhibition [38]: < 70%
